Measured values reported in article PMC5566978, “Human Leukocyte Antigen (HLA)-DRB1*15:01 and HLA-DRB5*01:01 Present Complementary Peptide Repertoires” (Frontiers in Immunology, 2017).
Where no end group is shown, it is not given here.

Columns and labels:
[1] = biological target: recombinant DR2b (DRA1*01:01/DRB1*15:01) (Homo sapiens, UniProt P01903+P01911); experiment: Competition peptide-binding assay to recombinant DR2b; settings: competition with 1 µM biotinylated modified GAD555-567 peptide, wells coated with HLA-DR2b, europium-streptavidin time resolved fluorescence
Experimental: (§1) The experimental affinity of different peptides to HLA-DR molecules was determined as previously described ([31]). Briefly, recombinant DR2b (DRA1*01:01/DRB1*15:01) and DR2a (DRA1*01:01/DRB5*01:01) proteins were used for peptide-binding assays. Increasing concentrations of each non-biotinylated test peptide were incubated in competition with 1 µM of the biotinylated GAD555-567 peptide ([…], modified from […] to bind to DRB1*15:01 and DRB5*01:01 in a single unambiguous register) in wells coated with HLA-DR2a or HLA-DR2b. After washing, residual biotinylated reference peptide was labeled using europium conjugated streptavidin (Perkin Elmer) and quantified using a Victor3 D time resolved fluorometer (Perkin Elmer). Peptide-binding curves were simulated by non-linear regression with Prism Software (version 4.03, GraphPad Software Inc.) using a sigmoidal dose–response curve. IC50 binding values were calculated from the resulting curves as the peptide concentration needed for 50% inhibition of reference peptide binding. Equivalent amounts of purified HLA-DR protein were plated on each plate, but similar amounts of total protein can have different levels of activity. Thus, different preparations of protein frequently give different levels of maximum counts (presumably based on differences in purity and the proportion of the protein that is functional). Indeed differences between different preparations of the same HLA-DR protein can be observed.
(§2) Figure 4 Experimental binding affinity of peptides sequenced from MGAR and (A) Binding to DR2a or (B) Binding to DR2b. Increased concentration of the peptides were incubated in wells coated with recombinant human leukocyte antigen (HLA)-DR2a or HLA-DR2b in competition with 1 µM biotinylated modified GAD555-567 peptide ([…], modified from […] to bind to DRB1*15:01 and DRB5*01:01 in a single unambiguous register) to generate binding curves. After washing, residual biotinylated reference peptide was labeled using europium-conjugated streptavidin and quantified. The Y-axis depicts raw europium counts, which is proportional to the amount of residual biotinylated peptide that remains bound to HLA class II. White-filled symbols represent peptides eluted from DR2a. Black-filled symbols represent peptides eluted from DR2b.

[2] = biological target: recombinant DR2a (DRA1*01:01/DRB5*01:01) (Homo sapiens, UniProt P01903+Q30154); experiment: Competition peptide-binding assay to recombinant DR2a; settings: competition with 1 µM biotinylated modified GAD555-567 peptide, wells coated with HLA-DR2a, europium-streptavidin time resolved fluorescence
Experimental: as §1, §2

| IC50 [1] [µM] | IC50 [2] [µM] | BINDING IC50 DR2a [2] | Sequence |
| --- | --- | --- | --- |
| > 50 | > 50 |  | LEEFGRFASFEAQGA |
| > 50 | > 50 |  | QKKEIHLYQTFVVQ |
| > 50 | 5.8 |  | SQAEFEKAAEEVRHL |

Second part, the sequence before the results:

| Sequence | IC50 [1] [µM] | IC50 [2] [µM] | BINDING IC50 DR2a [2] |
| --- | --- | --- | --- |
| ELEELRAEQQRLKSQDL | > 50 |  |  |
| LEEFGRFASFEAQG | > 50 | > 50 |  |
| LPSEKAIFLFVDKTVPQS |  | > 50 | non-detectable affinity |
| QKKEIHLYQTFVVQL | > 50 | > 50 |  |
| QKKEIHLYQTFVVQLQDPR | > 50 | > 50 |  |
| QKKEIHLYQTFVVQLQDPREP | > 50 | > 50 |  |
| QTKEFQVLKSLGKLAMG | > 50 |  |  |
